Data: EP3383875B1, “3-PYRIMIDINYL PYRROLO [2,3-B] PYRIDINE AS ANTICANCER AGENTS AND THE PROCESS FOR THE PREPARATION THEREOF” (Council Of Scientific & Industrial Research, priority 2015, dated 2017)
Like-named read-outs stand apart in the source and are kept apart here.

Legend:
HCT-116 = test: MTT assay on cancer cell line HCT-116; assay type: cell-based, human; conditions: Homo sapiens
Method: (§1) Cell culture, growth conditions and treatments. […] Different molecules were dissolved in DMSO and were delivered to cell cultures in complete medium.

PC-3 = test: MTT assay on cancer cell line PC-3; assay type: cell-based, human; conditions: Homo sapiens
Method: as §1

CDK-2/cyclin A = CDK-2/cyclin A (Homo sapiens, UniProt P24941); test: CDK inhibition assay, CDK-2/cyclin A against Histone HI, 33P-ATP; assay type: biochemical; conditions: at 500 nM
Method in brief: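 CDK-2/cyclin A (5-20 mU) phosphorylating Histone HI (1 mg/ml) in 50 mM Hepes pH 7.5, 100 mM NaCl, 10 mM Mg acetate, 0.02 mM [33P-γ-ATP], 30 min at room temperature. Stopped with orthophosphoric acid, captured on P81 filters for radiometric readout.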

MDA-MB435 = test: MTT assay on cancer cell line MDA-MB435; assay type: cell-based, Human; conditions: Homo sapiens, MDA-MB-435
Method: as §1

CDK-9/Cyclin T1 = CDK-9/Cyclin T1 (Homo sapiens, UniProt P50750); test: CDK inhibition assay, CDK-9/Cyclin T1 against substrate peptide, 33P-ATP; assay type: biochemical; conditions: at 500 nM
CDK-9/Cyclin T1, sequence (P50750 whole entry): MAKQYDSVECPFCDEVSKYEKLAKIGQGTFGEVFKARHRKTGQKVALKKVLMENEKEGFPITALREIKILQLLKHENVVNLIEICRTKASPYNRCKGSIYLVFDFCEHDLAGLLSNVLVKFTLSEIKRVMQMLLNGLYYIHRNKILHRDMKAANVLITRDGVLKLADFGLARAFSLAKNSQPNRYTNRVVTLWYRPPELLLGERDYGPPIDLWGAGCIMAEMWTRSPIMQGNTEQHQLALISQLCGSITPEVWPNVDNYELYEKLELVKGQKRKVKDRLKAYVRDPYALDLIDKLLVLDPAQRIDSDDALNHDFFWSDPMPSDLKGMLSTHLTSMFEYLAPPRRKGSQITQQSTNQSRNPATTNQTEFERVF
CDK-9/Cyclin T1, sequence (O60563 whole entry partner): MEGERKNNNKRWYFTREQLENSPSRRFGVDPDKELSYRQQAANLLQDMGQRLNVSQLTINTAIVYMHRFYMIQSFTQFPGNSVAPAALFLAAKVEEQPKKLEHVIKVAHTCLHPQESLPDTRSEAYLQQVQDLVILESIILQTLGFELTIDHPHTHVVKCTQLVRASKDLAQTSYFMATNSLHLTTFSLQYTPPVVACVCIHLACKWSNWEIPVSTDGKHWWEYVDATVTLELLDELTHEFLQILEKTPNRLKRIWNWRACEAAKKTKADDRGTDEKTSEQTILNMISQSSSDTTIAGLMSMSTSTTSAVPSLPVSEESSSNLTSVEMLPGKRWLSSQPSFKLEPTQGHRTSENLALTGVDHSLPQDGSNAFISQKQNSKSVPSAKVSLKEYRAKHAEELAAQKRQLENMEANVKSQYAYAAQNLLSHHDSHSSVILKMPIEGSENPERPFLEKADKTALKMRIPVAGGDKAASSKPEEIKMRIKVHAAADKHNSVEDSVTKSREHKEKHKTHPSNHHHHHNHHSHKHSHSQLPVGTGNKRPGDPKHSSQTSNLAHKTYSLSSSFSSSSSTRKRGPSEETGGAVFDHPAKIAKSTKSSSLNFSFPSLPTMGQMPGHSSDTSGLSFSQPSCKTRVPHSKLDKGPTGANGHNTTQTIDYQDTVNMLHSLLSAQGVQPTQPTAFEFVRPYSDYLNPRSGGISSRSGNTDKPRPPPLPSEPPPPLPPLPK
Method: (50-1000 cpm/pmole) and incubated for 30 min at room temperature. Assays were stopped by addition of 5 µl of 0.5 M (3%) orthophosphoric acid and then harvested onto P81 Unifilter plates with a wash buffer of 50 mM orthophosphoric acid.

SHSY-5Y = test: MTT assay on cancer cell line SHSY-5Y; assay type: cell-based, human; conditions: Homo sapiens, SH-SY5Y
Method: as §1

MCF-7 = test: MTT assay on cancer cell line MCF-7; assay type: cell-based, Human; conditions: Homo sapiens
Method: as §1

[1] = at 10µM, Table 9 (for reference), read-out: In vitro cell inhibition, % of inhibition, HCT-116
[2] = Table 9 (for reference), read-out: In vitro cell inhibition, % of inhibition, PC-3
[3] = Table-7, read-out: In vitro CDK2 % of inhibition
[4] = read-out: inhibition against CDK2
[5] = MDA-MB435, at 10µM, Table 9 (for reference), read-out: In vitro cell inhibition, % of inhibition, MDA-MB435
[6] = Table-7, read-out: In vitro CDK9 % of inhibition
[7] = read-out: inhibition against CDK9
[8] = SHSY-5Y, Table 9 (for reference), read-out: In vitro cell inhibition, % of inhibition, SHSY-5Y
[9] = read-out: inhibition against SHSY-5Y cell lines
[10] = MCF7, MCF-7, Table 9 (for reference), read-out: In vitro cell inhibition, % of inhibition, MCF-7
[11] = MCF7, read-out: inhibition against MCF-7 cell lines
[12] = at 10µM, Table 8, read-out: In vitro cell inhibition, % of inhibition, HCT-116
[13] = Table 8, read-out: In vitro cell inhibition, % of inhibition, PC-3
[14] = MDA-MB435, at 10µM, Table 8, read-out: In vitro cell inhibition, % of inhibition, MDA-MB435
[15] = SHSY-5Y, Table 8, read-out: In vitro cell inhibition, % of inhibition, SHSY-5Y
[16] = MCF7, MCF-7, Table 8, read-out: In vitro cell inhibition, % of inhibition, MCF-7
[17] = read-out: inhibition against PC-3 cell lines
[18] = Table-6, read-out: In vitro CDK2 % of inhibition
[19] = Table-6, read-out: In vitro CDK9 % of inhibition
[20] = at 10 µM, read-out: inhibition against HCT-116 cell lines
[21] = at 10 µM, read-out: inhibition against MDAMB-435 cell lines

inhibition at 0.5 µM (CDK-2/cyclin A; [3]) [%] | inhibition at 0.5 µM (CDK-2/cyclin A; [4]) [%] | inhibition at 0.5 µM (CDK-9/Cyclin T1; [6]) [%] | inhibition at 0.5 µM (CDK-9/Cyclin T1; [7]) [%] | inhibition at 0.5 µM (CDK-2/cyclin A; [18]) [%] | inhibition at 0.5 µM (CDK-9/Cyclin T1; [19]) [%] | SMILES | inhibition at 10 µM (SHSY-5Y; [9]) [%] | inhibition at 10 µM (MCF-7; [11]) [%] | inhibition at 10 µM (HCT-116; [12]) [%] | inhibition at 10 µM (PC-3; [13]) [%] | inhibition at 10 µM (MDA-MB435; [14]) [%] | inhibition at 10 µM (SHSY-5Y; [15]) [%] | inhibition at 10 µM (MCF-7; [16]) [%] | also measured
> 70 | > 70 | > 70 | > 70 |  |  | Nc1nccc(-c2c[nH]c3ncc(-c4cccc(C(F)(F)F)c4)cc23)n1 [1C4, 4-(5-(3-(trifluoromethyl)phenyl)-1H-pyrrolo[2,3-b]pyridin-3-yl)pyrimidin-2-amine] | > 70 | > 70 |  |  |  |  |  | inhibition at 10 µM (HCT-116; [1]): > 70%; inhibition at 10 µM (PC-3; [2]): < 50%; inhibition at 10 µM (MDA-MB435; [5]): > 70%; inhibition at 10 µM (SHSY-5Y; [8]): > 70%; inhibition at 10 µM (MCF-7; [10]): > 70%
> 70 | > 70 | > 70 | > 70 |  |  | CSc1ccccc1-c1cnc2[nH]cc(-c3ccnc(N)n3)c2c1 [1C9, 4-(5-(2-(methylthio)phenyl)-1H-pyrrolo[2,3-b]pyridin-3-yl)pyrimidin-2-amine] | > 70 | > 70 |  |  |  |  |  | inhibition at 10 µM (HCT-116; [1]): > 50%; inhibition at 10 µM (PC-3; [2]): > 70%; inhibition at 10 µM (MDA-MB435; [5]): > 70%; inhibition at 10 µM (SHSY-5Y; [8]): > 70%; inhibition at 10 µM (MCF-7; [10]): > 70%
> 70 | > 70 | > 70 | > 70 |  |  | c1ccc(CCNc2nccc(-c3c[nH]c4ncc(-c5cccnc5)cc34)n2)cc1 [1B15, N-phenethyl-4-(5-(pyridin-3-yl)-1H-pyrrolo[2,3-b]pyridin-3-yl)pyrimidin-2-amine] | > 70 | > 50 | > 50 | < 50 | < 50 | > 70 | > 50 | 
 | > 50 |  | > 50 | > 50 | > 50 | Fc1ccc(-c2cnc3[nH]cc(-c4ccnc(NC5CCCCCC5)n4)c3c2)cc1 [1A42, N-cycloheptyl-4-(5-(4-fluorophenyl)-1H-pyrrolo[2,3-b]pyridin-3-yl)pyrimidin-2-amine] | > 70 | < 50 | > 50 | > 50 | > 70 | > 70 | < 50 | inhibition at 10 µM (PC-3; [17]): > 50%
 | > 70 |  | > 70 | > 70 | > 70 | Clc1ccc(-c2cnc3[nH]cc(-c4ccnc(NC5CC5)n4)c3c2)cc1 [1A12, 4-(5-(4-chlorophenyl)-1H-pyrrolo[2,3-b]pyridin-3-yl)-N-cyclopropylpyrimidin-2-amine] | > 70 | > 70 | > 70 | > 50 | > 70 | > 70 | > 70 | inhibition at 10 µM (HCT-116; [20]): > 70%; inhibition at 10 µM (PC-3; [17]): > 50%; inhibition at 10 µM (MDA-MB435; [21]): > 70%
 | > 50 |  | > 50 | > 50 | > 50 | COc1ccc(-c2cnc3[nH]cc(-c4ccnc(NC5CCCC5)n4)c3c2)cc1 [1A31, N-cyclopentyl-4-(5-(4-methoxyphenyl)-1H-pyrrolo-[2,3-b]pyridin-3-yl)pyrimidin-2-amine] | > 70 | < 50 | > 50 | > 50 | > 50 | > 70 | < 50 | inhibition at 10 µM (PC-3; [17]): > 50%
< 50 |  | < 50 |  |  |  | FC(F)(F)c1ccc(-c2cnc3[nH]cc(-c4ccnc(NCCc5ccccc5)n4)c3c2)cc1 [1B1, N-phenethyl-4-(5-(4-(trifluoromethyl)phenyl)-1H-pyrrolo[2,3-b]pyridin-3-yl)pyrimidin-2-amine] | > 70 | > 50 | > 50 | > 70 | < 50 | > 70 | > 50 | 
> 70 | > 70 | > 70 | > 70 |  |  | CCc1ccccc1-c1cnc2[nH]cc(-c3ccnc(N)n3)c2c1 [1C10, 4-(5-(2-ethylphenyl)-1H-pyrrolo[2,3-b]pyridin-3-yl)pyrimidin-2-amine] | > 70 | > 70 |  |  |  |  |  | inhibition at 10 µM (HCT-116; [1]): > 70%; inhibition at 10 µM (PC-3; [2]): > 70%; inhibition at 10 µM (MDA-MB435; [5]): > 70%; inhibition at 10 µM (SHSY-5Y; [8]): > 70%; inhibition at 10 µM (MCF-7; [10]): > 70%
> 70 | > 70 | > 70 | > 70 |  |  | Nc1nccc(-c2c[nH]c3ncc(-c4cccc5ccccc45)cc23)n1 [1C14, 4-(5-(naphthalen-1-yl)-1H-pyrrolo[2,3-b]pyridin-3-yl)pyrimidin-2-amine] |  | > 50 |  |  |  |  |  | inhibition at 10 µM (HCT-116; [1]): > 70%; inhibition at 10 µM (PC-3; [2]): > 70%; inhibition at 10 µM (MDA-MB435; [5]): > 50%; inhibition at 10 µM (SHSY-5Y; [8]): > 50%; inhibition at 10 µM (MCF-7; [10]): > 50%
 | > 70 |  | > 70 | > 70 | > 70 | Fc1ccc(-c2cnc3[nH]cc(-c4ccnc(NC5CC5)n4)c3c2)cc1 [1A2, N-cyclopropyl-4-(5-(4-fluorophenyl)-1H-pyrrolo[2,3-b]pyridin-3-yl)pyrimidin-2-amine] | > 70 | > 70 | > 70 | > 50 | > 70 | > 70 | > 70 | inhibition at 10 µM (HCT-116; [20]): > 70%; inhibition at 10 µM (PC-3; [17]): > 50%; inhibition at 10 µM (MDA-MB435; [21]): > 70%
> 50 | > 50 | > 50 | > 50 |  |  | Fc1ccc(-c2cnc3[nH]cc(-c4ccnc(NCCc5ccccc5)n4)c3c2)cc1 [1B2, 4-(5-(4-fluorophenyl)-1H-pyrrolo[2,3-b]pyridin-3-yl)-N-phenethylpyrimidin-2-amine] | > 70 |  | > 50 | < 50 | > 50 | > 70 | > 50 | 
> 70 | > 70 | > 70 | > 70 |  |  | c1cncc(-c2cnc3[nH]cc(-c4ccnc(NC5CCCCCC5)n4)c3c2)c1 [1A55, N-cycloheptyl-4-(5-(pyridin-3-yl)-1H-pyrrolo[2,3-b]pyridin-3-yl)pyrimidin-2-amine] | > 70 | < 50 | > 50 | > 50 | > 50 | > 70 | < 50 | 
 |  |  |  | > 50 | > 50 | Fc1ccc(-c2cnc3[nH]cc(-c4ccnc(NC5CCCC5)n4)c3c2)cc1 [1A22, N-cyclopentyl-4-(5-(4-fluorophenyl)-1H-pyrrolo[2,3-b]pyridin-3-yl)pyrimidin-2-amine] | > 70 | > 50 | > 50 | > 50 | < 50 | > 70 | > 50 | 
 | > 70 |  | > 70 | > 70 | > 70 | c1cc(-c2c[nH]c3ncc(-c4ccoc4)cc23)nc(NC2CC2)n1 [1A16, N-cyclopropyl-4-(5-(furan-3-yl)-1H-pyrrolo[2,3-b]pyridin-3-yl)pyrimidin-2-amine] |  | > 50 | > 70 | > 70 | > 70 | > 50 | > 50 | 
